Holding throughout (type): cell-based
Experiment [1] deals with T1, GLP-1R (Homo sapiens, UniProt P43220). Kind of experiment: HitHunter cAMP assay (GLP-1R). To be noted: cAMP; for Emax: read-out: (Emax) GLP-1R. The procedure, abridged:
(§1)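 Luminescent readout of cAMP by enzyme-fragment immunocompetition gave agonist concentration-response data. Cells (10,000/well) sat in HBSS buffer containing IBMX 625 μM, HEPES 10 mM and BSA 0.2%, exposed to agonist for 30 min at room temperature.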
(Cyclic AMP is a second messenger, typically raised through Gs and lowered through Gi signalling.)

Experiment [2] deals with T2, GIP-R (Homo sapiens, UniProt P48546).
T2 sequence (P48546 22-466): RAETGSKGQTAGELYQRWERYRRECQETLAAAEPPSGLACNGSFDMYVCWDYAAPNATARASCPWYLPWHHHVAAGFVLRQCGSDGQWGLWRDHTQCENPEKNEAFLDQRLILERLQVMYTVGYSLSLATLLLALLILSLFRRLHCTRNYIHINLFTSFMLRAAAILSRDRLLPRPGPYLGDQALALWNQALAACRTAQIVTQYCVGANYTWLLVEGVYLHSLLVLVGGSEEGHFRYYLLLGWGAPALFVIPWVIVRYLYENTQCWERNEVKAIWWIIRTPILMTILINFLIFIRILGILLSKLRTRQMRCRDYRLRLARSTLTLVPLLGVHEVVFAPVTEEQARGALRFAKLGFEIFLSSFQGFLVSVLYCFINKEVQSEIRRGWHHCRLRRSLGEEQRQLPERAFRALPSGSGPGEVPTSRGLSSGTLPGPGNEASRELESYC
Kind of experiment: HitHunter cAMP assay (GIP-R). The note with it: cAMP; for Emax: read-out: (Emax) GIP-R. The procedure, abridged:
as §1

The target in experiment [3] is T1, GLP-1R. Put plainly: PathHunter β-arrestin assay. In outline:
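Overnight-plated cells; 0.2% BSA medium; agonist 22-pt 2× dilution series, duplicate; 90 min, 37 °C/5% CO2; detection reagent 3 h RT, dark; luminescence.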

Setting [4] is: Table 3, read-out: EC50 GLP-1R/nM.
The mark [5] stands for this setting: Table 3A, read-out: EC50 GLP-1R/nM.
Where [6] appears, read: Table 3, read-out: EC50 GIP-R/nM.
Setting [7] is: Table 3A, read-out: EC50 GIP-R/nM.
Where [8] appears, read: PathHunter β-arrestin assay, read-out: β-arrestin activity EC50.

Like-named read-outs stand apart in the source and are kept apart here. Square brackets hold non-standard residues; d marks the D form. Peptide text beside a SMILES is read from it. * marks the point of attachment. X1 = O=C(CSCC(=O)*)NCCN1C(=O)c2ccccc2C1=O; Aib = CC(C)(N)C(=O)O

As usually defined, the Emax is the maximal effect, on the per cent scale that the assay sets.

T1 sequence (P43220 24-463): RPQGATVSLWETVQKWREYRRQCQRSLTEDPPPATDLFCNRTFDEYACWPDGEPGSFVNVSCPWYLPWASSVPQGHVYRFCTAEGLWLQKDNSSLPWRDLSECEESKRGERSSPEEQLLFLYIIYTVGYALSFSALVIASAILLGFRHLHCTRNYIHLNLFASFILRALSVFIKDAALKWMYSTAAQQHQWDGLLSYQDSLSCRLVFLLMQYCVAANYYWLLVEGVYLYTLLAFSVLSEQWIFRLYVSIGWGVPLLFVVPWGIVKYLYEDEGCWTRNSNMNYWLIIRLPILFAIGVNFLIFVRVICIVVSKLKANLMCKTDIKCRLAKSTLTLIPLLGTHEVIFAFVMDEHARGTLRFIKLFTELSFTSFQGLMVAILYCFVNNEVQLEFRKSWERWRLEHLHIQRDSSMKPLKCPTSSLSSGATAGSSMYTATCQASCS

As for `CC[C@H](C)[C@H](NC(=O)[C@H](CO)NC(=O)[C@H](Cc1ccc(O)cc1)NC(=O)[C@H](CC(=O)O)NC(=O)[C@H](CO)NC(=O)[C@@H](NC(=O)[C@H](Cc1ccccc1)NC(=O)[C@@H](NC(=O)CNC(=O)[C@H](CCC(=O)O)NC(=O)C(C)(C)C(=O)NCCCCN1C(=O)c2ccccc2C1=O)[C@@H](C)O)[C@@H](C)O)C(=O)N[C@@H](Cc1ccc(O)cc1)C(=O)N[C@@H](CC(C)C)C(=O)N[C@@H](CC(=O)O)C(=O)N[C@@H](CCCCN)C(=O)N[C@@H](CCC(N)=O)C(=O)N[C@@H](C)C(=O)N[C@@H](C)C(=O)NC(C)(C)C(=O)N[C@@H](CCC(=O)O)C(=O)N[C@@H](Cc1ccccc1)C(=O)N[C@H](C(=O)N[C@@H](CC(N)=O)C(=O)N[C@@H](Cc1c[nH]c2ccccc12)C(=O)N[C@@H](CC(C)C)C(=O)N[C@@H](CC(C)C)C(=O)N[C@@H](C)C(=O)NCC(=O)NCC(=O)N1CCC[C@H]1C(=O)N[C@@H](CO)C(=O)N[C@@H](CO)C(=O)NCC(=O)N[C@@H](C)C(=O)N1CCC[C@H]1C(=O)N1CCC[C@H]1C(=O)N1CCC[C@H]1C(=O)N[C@@H](CO)C(=O)N[C@@H](CCCCN)C(N)=O)C(C)C` [Compound 141], the EC50 is 1 to 10 nM in experiment [1] (EC50 GLP-1R/nM, Table 3); 1 to 10 nM in experiment [1] (EC50 GLP-1R/nM, Table 3A); 10 to 100 nM in experiment [2] (EC50 GIP-R/nM, Table 3); 10 to 100 nM in experiment [2] (EC50 GIP-R/nM, Table 3A); > 1000 nM in experiment [3]. For the same molecule, the maximal effect (Emax) in experiment [1] (Table 3) lay within 98 to 100%; in experiment [1] (Table 3A) it was 98 to 100%; in experiment [2] (Table 3), 46 to 50%; in experiment [2] (Table 3A), 46 to 50%.

As to `CC[C@H](C)[C@H](NC(=O)[C@H](CO)NC(=O)[C@H](Cc1ccc(O)cc1)NC(=O)[C@H](CC(=O)O)NC(=O)[C@H](CO)NC(=O)[C@@H](NC(=O)[C@H](Cc1ccccc1)NC(=O)[C@@H](NC(=O)CNC(=O)[C@H](CCC(=O)O)NC(=O)C(C)(C)C(=O)NC)[C@@H](C)O)[C@@H](C)O)C(=O)N[C@@H](Cc1ccc(O)cc1)C(=O)N[C@@H](CC(C)C)C(=O)N[C@@H](CC(=O)O)C(=O)N[C@@H](CCCCN)C(=O)N[C@@H](CCC(N)=O)C(=O)N[C@@H](C)C(=O)N[C@@H](C)C(=O)NC(C)(C)C(=O)N[C@@H](CCC(=O)O)C(=O)N[C@@H](Cc1ccccc1)C(=O)N[C@H](C(=O)N[C@@H](CC(N)=O)C(=O)N[C@@H](Cc1c[nH]c2ccccc12)C(=O)N[C@@H](CC(C)C)C(=O)N[C@@H](CC(C)C)C(=O)N[C@@H](C)C(=O)NCC(=O)NCC(=O)N1CCC[C@H]1C(=O)N[C@@H](CO)C(=O)N[C@@H](CO)C(=O)NCC(=O)N[C@@H](C)C(=O)N1CCC[C@H]1C(=O)N1CCC[C@H]1C(=O)N1CCC[C@H]1C(=O)N[C@@H](CO)C(=O)N[C@@H](CCCCN)C(N)=O)C(C)C` [Compound 142], the Emax is 101 to 105% in experiment [1] (Table 3), 101 to 105% in experiment [1] (Table 3A), 14.2 to 17% in experiment [2] (Table 3) and 14.2 to 17% in experiment [2] (Table 3A). In addition, the EC50 in experiment [1] (setting [4]) is < 0.1 nM; in experiment [1] (setting [5]) it was < 0.1 nM; in experiment [2] (setting [6]), 10 to 100 nM; in experiment [2] (setting [7]), 100 to 1000 nM; in experiment [3] (setting [8]) it was 10 to 1000 nM.

With `CC[C@H](C)[C@H](NC(=O)[C@H](CO)NC(=O)[C@H](Cc1ccc(O)cc1)NC(=O)[C@H](CC(=O)O)NC(=O)[C@H](CO)NC(=O)[C@@H](NC(=O)[C@H](Cc1ccccc1)NC(=O)[C@@H](NC(=O)CNC(=O)[C@H](CCC(=O)O)NC(=O)C(C)(C)C(=O)NCCCN1C(=O)c2ccccc2C1=O)[C@@H](C)O)[C@@H](C)O)C(=O)N[C@@H](Cc1ccc(O)cc1)C(=O)N[C@@H](CC(C)C)C(=O)N[C@@H](CC(=O)O)C(=O)N[C@@H](CCCCN)C(=O)N[C@@H](CCC(N)=O)C(=O)N[C@@H](C)C(=O)N[C@@H](C)C(=O)NC(C)(C)C(=O)N[C@@H](CCC(=O)O)C(=O)N[C@@H](Cc1ccccc1)C(=O)N[C@H](C(=O)N[C@@H](CC(N)=O)C(=O)N[C@@H](Cc1c[nH]c2ccccc12)C(=O)N[C@@H](CC(C)C)C(=O)N[C@@H](CC(C)C)C(=O)N[C@@H](C)C(=O)NCC(=O)NCC(=O)N1CCC[C@H]1C(=O)N[C@@H](CO)C(=O)N[C@@H](CO)C(=O)NCC(=O)N[C@@H](C)C(=O)N1CCC[C@H]1C(=O)N1CCC[C@H]1C(=O)N1CCC[C@H]1C(=O)N[C@@H](CO)C(=O)N[C@@H](CCCCN)C(N)=O)C(C)C` [Compound 143], the Emax in experiment [1] (Table 3) lay in the range of 99 to 108%; in experiment [1] (Table 3A), 99 to 108%; in experiment [2] (Table 3), 99 to 107%; in experiment [2] (Table 3A), 99 to 107%. Also, the EC50 in experiment [1] (setting [4]) is 0.1 to 1 nM; in experiment [1] (setting [5]), 0.1 to 1 nM; in experiment [2] (setting [6]) it was 1 to 10 nM; in experiment [2] (setting [7]), 1 to 10 nM; in experiment [3] (setting [8]), > 1000 nM.

Turning to `CC[C@H](C)[C@H](NC(=O)[C@H](CO)NC(=O)[C@H](Cc1ccc(O)cc1)NC(=O)[C@H](CC(=O)O)NC(=O)[C@H](CO)NC(=O)[C@@H](NC(=O)[C@H](Cc1ccccc1)NC(=O)[C@@H](NC(=O)CNC(=O)[C@H](CCC(=O)O)NC(=O)CSCC(=O)NCCN1C(=O)c2ccccc2C1=O)[C@@H](C)O)[C@@H](C)O)C(=O)N[C@@H](Cc1ccc(O)cc1)C(=O)N[C@@H](CC(C)C)C(=O)N[C@@H](CC(=O)O)C(=O)N[C@@H](CCCCN)C(=O)N[C@@H](CCC(N)=O)C(=O)N[C@@H](C)C(=O)N[C@@H](C)C(=O)NC(C)(C)C(=O)N[C@@H](CCC(=O)O)C(=O)N[C@@H](Cc1ccccc1)C(=O)N[C@H](C(=O)N[C@@H](CC(N)=O)C(=O)N[C@@H](Cc1c[nH]c2ccccc12)C(=O)N[C@@H](CC(C)C)C(=O)N[C@@H](CC(C)C)C(=O)N[C@@H](C)C(=O)NCC(=O)NCC(=O)N1CCC[C@H]1C(=O)N[C@@H](CO)C(=O)N[C@@H](CO)C(=O)NCC(=O)N[C@@H](C)C(=O)N1CCC[C@H]1C(=O)N1CCC[C@H]1C(=O)N1CCC[C@H]1C(=O)N[C@@H](CO)C(=O)N[C@@H](CCCCN)C(N)=O)[C@@H](C)CC` [Compound 144] (X1-EGTFTSDYSIYLDKQAA[Aib]EFINWLLAGGPSSGAPPPSK-NH2), the EC50 in experiment [1] (EC50 GLP-1R/nM, Table 3) was 1 to 10 nM; in experiment [1] (EC50 GLP-1R/nM, Table 3A), 1 to 10 nM; in experiment [2] (EC50 GIP-R/nM, Table 3), < 0.1 nM; in experiment [2] (EC50 GIP-R/nM, Table 3A) it was < 0.1 nM; in experiment [3], > 1000 nM. For the same molecule, the Emax in experiment [1] (Table 3) lay within 93 to 119%; in experiment [1] (Table 3A), 93 to 119%; in experiment [2] (Table 3), 127 to 140%; in experiment [2] (Table 3A) it was 127 to 140%.

As to `CC[C@H](C)[C@H](NC(=O)[C@H](CO)NC(=O)[C@H](Cc1ccc(O)cc1)NC(=O)[C@H](CC(=O)O)NC(=O)[C@H](CO)NC(=O)[C@@H](NC(=O)[C@H](Cc1ccccc1)NC(=O)[C@@H](NC(=O)CNC(=O)[C@H](CCC(=O)O)NC(=O)CSCC(=O)NCCN1C(=O)c2ccccc2C1=O)[C@@H](C)O)[C@@H](C)O)C(=O)N[C@@H](Cc1ccc(O)cc1)C(=O)N[C@@H](CC(C)C)C(=O)N[C@@H](CC(=O)O)C(=O)N[C@@H](CCCCN)C(=O)N[C@@H](CCC(N)=O)C(=O)N[C@@H](C)C(=O)N[C@@H](C)C(=O)NC(C)(C)C(=O)N[C@@H](CC(C)C)C(=O)N[C@@H](Cc1ccccc1)C(=O)N[C@H](C(=O)N[C@@H](CC(N)=O)C(=O)N[C@@H](Cc1c[nH]c2ccccc12)C(=O)N[C@@H](CC(C)C)C(=O)N[C@@H](CC(C)C)C(=O)N[C@@H](C)C(=O)NCC(=O)NCC(=O)N1CCC[C@H]1C(=O)N[C@@H](CO)C(=O)N[C@@H](CO)C(=O)NCC(=O)N[C@@H](C)C(=O)N1CCC[C@H]1C(=O)N1CCC[C@H]1C(=O)N1CCC[C@H]1C(=O)N[C@@H](CO)C(=O)N[C@@H](CCCCN)C(N)=O)C(C)C` [Compound 145] (X1-EGTFTSDYSIYLDKQAA[Aib]LFVNWLLAGGPSSGAPPPSK-NH2), the EC50 is 1 to 10 nM in experiment [1] (EC50 GLP-1R/nM, Table 3); 1 to 10 nM in experiment [1] (EC50 GLP-1R/nM, Table 3A); < 1 nM in experiment [2] (read-out: EC50 GIP-R/nM, Table 3); < 1 nM in experiment [2] (read-out: EC50 GIP-R/nM, Table 3A); > 1000 nM in experiment [3]. In addition, the maximum response (Emax) in experiment [1] (Table 3) was 100 to 104%; in experiment [1] (Table 3A), 100 to 104%; in experiment [2] (Table 3), 125%; in experiment [2] (Table 3A) it was 125%.
